Results on 7 compounds are retold here after ChEMBL document CHEMBL6120974, “Hydrazide-Based Class I Selective HDAC Inhibitors Completely Reverse Chemoresistance Synergistically in Platinum-Resistant Solid Cancer Cells” (J Med Chem, 2024).

Structures are written as SMILES. Active and inactive are the calls of the source. The calls are words filed in the database; no cut-off is given here.

What is called IC50 is the concentration that inhibits the measured activity by half. What is called inhibition is the share of the control response that was lost under treatment.

For assay [1], the target named is T1, Protein deacetylase HDAC6 (Homo sapiens, UniProt Q9UBN7).
T1 sequence (Q9UBN7 whole entry): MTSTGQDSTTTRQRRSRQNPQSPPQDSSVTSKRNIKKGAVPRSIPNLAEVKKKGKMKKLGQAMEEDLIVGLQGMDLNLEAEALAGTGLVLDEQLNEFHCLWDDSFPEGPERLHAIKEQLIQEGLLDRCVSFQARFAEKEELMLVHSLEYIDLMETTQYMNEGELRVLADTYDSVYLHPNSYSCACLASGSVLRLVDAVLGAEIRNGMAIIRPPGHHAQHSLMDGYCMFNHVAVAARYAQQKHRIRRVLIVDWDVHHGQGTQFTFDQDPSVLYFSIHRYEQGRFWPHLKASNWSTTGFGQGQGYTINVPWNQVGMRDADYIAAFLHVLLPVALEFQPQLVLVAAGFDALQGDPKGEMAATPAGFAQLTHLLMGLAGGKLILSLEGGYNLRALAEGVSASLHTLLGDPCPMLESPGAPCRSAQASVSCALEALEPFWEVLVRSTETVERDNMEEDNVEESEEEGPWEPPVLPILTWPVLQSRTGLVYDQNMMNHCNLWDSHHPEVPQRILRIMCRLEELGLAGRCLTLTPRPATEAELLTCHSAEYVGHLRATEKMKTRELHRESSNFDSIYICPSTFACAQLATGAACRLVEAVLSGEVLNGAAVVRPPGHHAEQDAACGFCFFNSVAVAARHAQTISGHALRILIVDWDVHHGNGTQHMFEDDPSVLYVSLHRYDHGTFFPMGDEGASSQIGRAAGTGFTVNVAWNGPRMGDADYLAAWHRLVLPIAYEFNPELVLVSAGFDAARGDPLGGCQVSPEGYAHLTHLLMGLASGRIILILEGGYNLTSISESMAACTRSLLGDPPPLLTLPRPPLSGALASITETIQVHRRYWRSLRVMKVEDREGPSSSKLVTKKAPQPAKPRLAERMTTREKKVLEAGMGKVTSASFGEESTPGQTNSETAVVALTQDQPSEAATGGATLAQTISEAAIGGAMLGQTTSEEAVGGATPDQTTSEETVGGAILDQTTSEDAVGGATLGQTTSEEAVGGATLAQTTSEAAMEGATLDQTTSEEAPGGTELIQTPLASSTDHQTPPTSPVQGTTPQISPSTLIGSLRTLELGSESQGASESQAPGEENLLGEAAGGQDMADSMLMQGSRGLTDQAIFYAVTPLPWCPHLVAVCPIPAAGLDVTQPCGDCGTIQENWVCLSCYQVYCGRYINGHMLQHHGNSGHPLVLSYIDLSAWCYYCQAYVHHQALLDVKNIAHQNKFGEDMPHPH
Put plainly: Inhibition of N-terminal GST-tagged full length recombinant human HDAC6 (1 to 1215 end residues) expressed in sf9 cells using ZMAL (Z-Lys(Ac)-AMC as fluorogenic substrate preincubated with compound for 60 mins followed by substrate addition and measured after 90 mins by fluorescence based microplate reader analysis.

The target of assay [2] is Histone deacetylase 3/Nuclear receptor corepressor 2 (HDAC3/NCoR2) (Homo sapiens, UniProt O15379). It counts as cell-based, Sf9.
For assay [3], the target named is T2, Protein deacetylase HDAC6 (Homo sapiens) (UniProt Q9UBN7).
T2 sequence (whole entry): T1 sequence (Q9UBN7 whole entry)
The assay is described as follows: Inhibition of N-terminal GST-tagged full length recombinant human HDAC6 (1 to 1215 end residues) expressed in sf9 cells at > 10 uM using ZMAL (Z-Lys(Ac)-AMC as fluorogenic substrate preincubated with compound for 60 mins followed by substrate addition and measured after 90 mins by fluorescence based microplate reader analysis relative to control. The conditions noted are these: time 150.0 min.

The target in assay [4] is Histone deacetylase 4 (Homo sapiens, UniProt P56524). The assay is described as follows: Inhibition of recombinant HDAC4 (unknown origin) using Bos-Lys(TFA)-AMC as substrate preincubated with compound for 5 mins and measured after 90 mins by NOVOstar microplate reader analysis.
Assay [5] is described as follows: cells. Particulars: Homo sapiens, A2780.
Description: Inhibition of class I/6 HDAC (unknown origin) in human A2780 cells using Boc-Lys(epsilon-Ac)-AMC as substrate preincubated with compound for 18 hrs followed by substrate addition and measured after 3 hrs by NOVOstar microplate reader analysis
Assay [6] can be described thus: cells. Particulars: Homo sapiens, A2780cisR.
Description: Inhibition of class I/6 HDAC (unknown origin) in cisplatin resistant human A2780 cisR cells using Boc-Lys(epsilon-Ac)-AMC as substrate preincubated with compound for 18 hrs followed by substrate addition and measured after 3 hrs by NOVOstar microplate reader analysis
Assay [7] is described as follows: cells. The conditions noted are these: Homo sapiens, CAL-27.
Description: Inhibition of class I/6 HDAC (unknown origin) in human CAL-27 cells using Boc-Lys(epsilon-Ac)-AMC as substrate preincubated with compound for 18 hrs followed by substrate addition and measured after 3 hrs by NOVOstar microplate reader analysis
A short description of assay [8]: cells. The conditions noted are these: Homo sapiens, Cal27CisR.
Description: Inhibition of class I/6 HDAC (unknown origin) in cisplatin resistant human Cal27CisR cells using Boc-Lys(epsilon-Ac)-AMC as substrate preincubated with compound for 18 hrs followed by substrate addition and measured after 3 hrs by NOVOstar microplate reader analysis
Assay [9] has as its system A2780. Put plainly: cells. Particulars: Homo sapiens, A2780, 72 h.
Description: Cytotoxicity against human A2780 cells assessed as reduction in cell viability incubated for 72 hrs by MTT assay
The test system of assay [10] is A2780cisR. The assay is described as follows: cells. The conditions noted are these: Homo sapiens, 72 h.
The subject of assay [11] is CAL-27. The assay is described as follows: cells. The conditions noted are these: Homo sapiens, CAL-27, 72 h.
Description: Cytotoxicity against human CAL-27 cells assessed as reduction in cell viability incubated for 72 hrs by MTT assay
Assay [12] in a line: cells. Particulars: Homo sapiens, Cal27CisR, 72 h.
Description: Cytotoxicity against cisplatin resistant human Cal27CisR cells assessed as reduction in cell viability incubated for 72 hrs by MTT assay
Assay [13] concerns the target T2, Protein deacetylase HDAC6 (Homo sapiens). The assay is described as follows: Inhibition of N-terminal GST-tagged full length recombinant human HDAC6 (1 to 1215 end residues) expressed in sf9 cells at > 3.33 uM using ZMAL (Z-Lys(Ac)-AMC as fluorogenic substrate preincubated with compound for 60 mins followed by substrate addition and measured after 90 mins by fluorescence based microplate reader analysis relative to control.

Assay [14] in a line: cells. Particulars: Homo sapiens, A2780. This is another data set of the same source.
Description: Inhibition of class IIa/8 HDAC (unknown origin) in human A2780 cells using Boc-Lys(TFA)-AMC as substrate preincubated with compound for 18 hrs followed by substrate addition and measured after 3 hrs by NOVOstar microplate reader analysis
A short description of assay [15]: cells. The conditions noted are these: Homo sapiens, A2780cisR. This is another data set of the same source.
Description: Inhibition of class IIa/8 HDAC (unknown origin) in cisplatin resistant human A2780 cisR cells using Boc-Lys(TFA)-AMC as substrate preincubated with compound for 18 hrs followed by substrate addition and measured after 3 hrs by NOVOstar microplate reader analysis
Assay [16] is described as follows: cells. Particulars: Homo sapiens, CAL-27. The source holds these as a separate data set.
Description: Inhibition of class IIa/8 HDAC (unknown origin) in human CAL-27 cells using Boc-Lys(TFA)-AMC as substrate preincubated with compound for 18 hrs followed by substrate addition and measured after 3 hrs by NOVOstar microplate reader analysis
Assay [17] is described as follows: cells. Particulars: Homo sapiens, Cal27CisR. This is another data set of the same source.
Description: Inhibition of class IIa/8 HDAC (unknown origin) in cisplatin resistant human Cal27CisR cells using Boc-Lys(TFA)-AMC as substrate preincubated with compound for 18 hrs followed by substrate addition and measured after 3 hrs by NOVOstar microplate reader analysis
Assay [18] concerns the target T3, Histone deacetylase 8 (Homo sapiens) (UniProt Q9BY41).
T3 sequence (whole entry): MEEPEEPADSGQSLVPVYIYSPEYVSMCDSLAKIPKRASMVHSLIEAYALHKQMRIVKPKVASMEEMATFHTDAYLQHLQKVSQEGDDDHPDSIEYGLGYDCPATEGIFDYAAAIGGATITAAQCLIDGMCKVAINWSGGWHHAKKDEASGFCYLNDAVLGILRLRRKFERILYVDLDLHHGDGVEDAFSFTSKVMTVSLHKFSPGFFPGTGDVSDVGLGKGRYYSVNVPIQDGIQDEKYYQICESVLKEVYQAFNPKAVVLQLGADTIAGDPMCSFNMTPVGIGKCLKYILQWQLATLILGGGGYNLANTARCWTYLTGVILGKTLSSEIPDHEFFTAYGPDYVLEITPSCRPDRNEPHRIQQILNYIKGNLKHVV
The assay is described as follows: Inhibition of recombinant HDAC8 (unknown origin) at > 10 uM using Bos-Lys(TFA)-AMC as substrate preincubated with compound for 5 mins and measured after 90 mins by NOVOstar microplate reader analysis relative to control. Particulars: time 95.0 min.

In assay [19] the target is T4, Histone deacetylase 8 (Homo sapiens, UniProt Q9BY41).
T4 sequence (Q9BY41 whole entry): T3 sequence (whole entry)
The assay is described as follows: Inhibition of recombinant HDAC8 (unknown origin) using Bos-Lys(TFA)-AMC as substrate preincubated with compound for 5 mins and measured after 90 mins by NOVOstar microplate reader analysis.

In assay [20] the test system is A2780. The assay is described as follows: Cytotoxicity against human A2780 cells at < 100 uM assessed as reduction in cell viability incubated for 72 hrs by MTT assay. It counts as functional, cell-based.
The subject of assay [21] is A2780cisR. The assay is described as follows: Cytotoxicity against cisplatin resistant human A2780 cisR cells at < 100 uM assessed as reduction in cell viability incubated for 72 hrs by MTT assay. It counts as functional, cell-based.
Assay [22] deals with Cal27CisR. Put plainly: Cytotoxicity against cisplatin resistant human Cal27CisR cells at < 10 uM assessed as reduction in cell viability incubated for 72 hrs by MTT assay. The assay is classed as functional, cell-based. A general note: Tetrazolium assays rely on reduction of a dye to a coloured formazan, in cell work by metabolically active cells.

Histone deacetylase 4, sequence (P56524 whole entry): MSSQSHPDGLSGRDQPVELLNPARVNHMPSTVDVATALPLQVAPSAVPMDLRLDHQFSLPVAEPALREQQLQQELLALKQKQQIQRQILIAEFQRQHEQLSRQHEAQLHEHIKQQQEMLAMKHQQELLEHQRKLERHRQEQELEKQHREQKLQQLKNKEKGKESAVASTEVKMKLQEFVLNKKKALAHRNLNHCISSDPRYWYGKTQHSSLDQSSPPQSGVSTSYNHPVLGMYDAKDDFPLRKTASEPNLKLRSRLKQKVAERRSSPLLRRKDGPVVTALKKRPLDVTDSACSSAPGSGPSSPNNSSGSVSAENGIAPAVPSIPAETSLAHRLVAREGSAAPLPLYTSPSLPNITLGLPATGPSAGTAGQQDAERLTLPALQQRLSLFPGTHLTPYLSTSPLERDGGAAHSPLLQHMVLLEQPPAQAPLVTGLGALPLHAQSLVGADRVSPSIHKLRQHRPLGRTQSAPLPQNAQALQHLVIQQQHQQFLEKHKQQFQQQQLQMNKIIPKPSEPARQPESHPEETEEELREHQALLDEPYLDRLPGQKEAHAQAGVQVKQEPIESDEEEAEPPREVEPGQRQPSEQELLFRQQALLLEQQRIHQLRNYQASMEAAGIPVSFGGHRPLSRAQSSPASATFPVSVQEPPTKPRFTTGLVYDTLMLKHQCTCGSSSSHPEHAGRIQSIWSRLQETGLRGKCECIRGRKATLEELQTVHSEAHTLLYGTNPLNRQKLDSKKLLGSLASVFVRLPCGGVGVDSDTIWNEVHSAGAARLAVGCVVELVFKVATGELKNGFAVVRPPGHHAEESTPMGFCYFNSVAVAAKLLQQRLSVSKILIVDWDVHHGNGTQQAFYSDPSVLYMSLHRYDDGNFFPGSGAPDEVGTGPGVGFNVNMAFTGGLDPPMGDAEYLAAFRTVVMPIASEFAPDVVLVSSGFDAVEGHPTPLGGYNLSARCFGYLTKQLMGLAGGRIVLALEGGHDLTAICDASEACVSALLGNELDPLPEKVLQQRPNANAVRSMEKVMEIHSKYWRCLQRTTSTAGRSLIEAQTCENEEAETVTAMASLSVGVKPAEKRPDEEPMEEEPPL
Histone deacetylase 3/Nuclear receptor corepressor 2 (HDAC3/NCoR2), sequence (O15379 whole entry): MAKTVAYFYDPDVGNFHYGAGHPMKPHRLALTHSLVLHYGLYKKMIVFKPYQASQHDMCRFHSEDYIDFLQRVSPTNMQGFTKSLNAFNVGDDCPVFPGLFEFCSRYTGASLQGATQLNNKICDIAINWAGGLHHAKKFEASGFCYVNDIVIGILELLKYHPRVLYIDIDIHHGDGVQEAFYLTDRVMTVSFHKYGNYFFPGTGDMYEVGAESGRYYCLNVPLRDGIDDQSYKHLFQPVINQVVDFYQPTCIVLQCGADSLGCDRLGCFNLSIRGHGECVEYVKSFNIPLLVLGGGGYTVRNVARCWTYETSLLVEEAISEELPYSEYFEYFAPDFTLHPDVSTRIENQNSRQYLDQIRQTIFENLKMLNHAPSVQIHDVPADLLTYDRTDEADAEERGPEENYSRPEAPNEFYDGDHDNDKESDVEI
Histone deacetylase 3/Nuclear receptor corepressor 2 (HDAC3/NCoR2), sequence (Q9Y618 whole entry, further chain): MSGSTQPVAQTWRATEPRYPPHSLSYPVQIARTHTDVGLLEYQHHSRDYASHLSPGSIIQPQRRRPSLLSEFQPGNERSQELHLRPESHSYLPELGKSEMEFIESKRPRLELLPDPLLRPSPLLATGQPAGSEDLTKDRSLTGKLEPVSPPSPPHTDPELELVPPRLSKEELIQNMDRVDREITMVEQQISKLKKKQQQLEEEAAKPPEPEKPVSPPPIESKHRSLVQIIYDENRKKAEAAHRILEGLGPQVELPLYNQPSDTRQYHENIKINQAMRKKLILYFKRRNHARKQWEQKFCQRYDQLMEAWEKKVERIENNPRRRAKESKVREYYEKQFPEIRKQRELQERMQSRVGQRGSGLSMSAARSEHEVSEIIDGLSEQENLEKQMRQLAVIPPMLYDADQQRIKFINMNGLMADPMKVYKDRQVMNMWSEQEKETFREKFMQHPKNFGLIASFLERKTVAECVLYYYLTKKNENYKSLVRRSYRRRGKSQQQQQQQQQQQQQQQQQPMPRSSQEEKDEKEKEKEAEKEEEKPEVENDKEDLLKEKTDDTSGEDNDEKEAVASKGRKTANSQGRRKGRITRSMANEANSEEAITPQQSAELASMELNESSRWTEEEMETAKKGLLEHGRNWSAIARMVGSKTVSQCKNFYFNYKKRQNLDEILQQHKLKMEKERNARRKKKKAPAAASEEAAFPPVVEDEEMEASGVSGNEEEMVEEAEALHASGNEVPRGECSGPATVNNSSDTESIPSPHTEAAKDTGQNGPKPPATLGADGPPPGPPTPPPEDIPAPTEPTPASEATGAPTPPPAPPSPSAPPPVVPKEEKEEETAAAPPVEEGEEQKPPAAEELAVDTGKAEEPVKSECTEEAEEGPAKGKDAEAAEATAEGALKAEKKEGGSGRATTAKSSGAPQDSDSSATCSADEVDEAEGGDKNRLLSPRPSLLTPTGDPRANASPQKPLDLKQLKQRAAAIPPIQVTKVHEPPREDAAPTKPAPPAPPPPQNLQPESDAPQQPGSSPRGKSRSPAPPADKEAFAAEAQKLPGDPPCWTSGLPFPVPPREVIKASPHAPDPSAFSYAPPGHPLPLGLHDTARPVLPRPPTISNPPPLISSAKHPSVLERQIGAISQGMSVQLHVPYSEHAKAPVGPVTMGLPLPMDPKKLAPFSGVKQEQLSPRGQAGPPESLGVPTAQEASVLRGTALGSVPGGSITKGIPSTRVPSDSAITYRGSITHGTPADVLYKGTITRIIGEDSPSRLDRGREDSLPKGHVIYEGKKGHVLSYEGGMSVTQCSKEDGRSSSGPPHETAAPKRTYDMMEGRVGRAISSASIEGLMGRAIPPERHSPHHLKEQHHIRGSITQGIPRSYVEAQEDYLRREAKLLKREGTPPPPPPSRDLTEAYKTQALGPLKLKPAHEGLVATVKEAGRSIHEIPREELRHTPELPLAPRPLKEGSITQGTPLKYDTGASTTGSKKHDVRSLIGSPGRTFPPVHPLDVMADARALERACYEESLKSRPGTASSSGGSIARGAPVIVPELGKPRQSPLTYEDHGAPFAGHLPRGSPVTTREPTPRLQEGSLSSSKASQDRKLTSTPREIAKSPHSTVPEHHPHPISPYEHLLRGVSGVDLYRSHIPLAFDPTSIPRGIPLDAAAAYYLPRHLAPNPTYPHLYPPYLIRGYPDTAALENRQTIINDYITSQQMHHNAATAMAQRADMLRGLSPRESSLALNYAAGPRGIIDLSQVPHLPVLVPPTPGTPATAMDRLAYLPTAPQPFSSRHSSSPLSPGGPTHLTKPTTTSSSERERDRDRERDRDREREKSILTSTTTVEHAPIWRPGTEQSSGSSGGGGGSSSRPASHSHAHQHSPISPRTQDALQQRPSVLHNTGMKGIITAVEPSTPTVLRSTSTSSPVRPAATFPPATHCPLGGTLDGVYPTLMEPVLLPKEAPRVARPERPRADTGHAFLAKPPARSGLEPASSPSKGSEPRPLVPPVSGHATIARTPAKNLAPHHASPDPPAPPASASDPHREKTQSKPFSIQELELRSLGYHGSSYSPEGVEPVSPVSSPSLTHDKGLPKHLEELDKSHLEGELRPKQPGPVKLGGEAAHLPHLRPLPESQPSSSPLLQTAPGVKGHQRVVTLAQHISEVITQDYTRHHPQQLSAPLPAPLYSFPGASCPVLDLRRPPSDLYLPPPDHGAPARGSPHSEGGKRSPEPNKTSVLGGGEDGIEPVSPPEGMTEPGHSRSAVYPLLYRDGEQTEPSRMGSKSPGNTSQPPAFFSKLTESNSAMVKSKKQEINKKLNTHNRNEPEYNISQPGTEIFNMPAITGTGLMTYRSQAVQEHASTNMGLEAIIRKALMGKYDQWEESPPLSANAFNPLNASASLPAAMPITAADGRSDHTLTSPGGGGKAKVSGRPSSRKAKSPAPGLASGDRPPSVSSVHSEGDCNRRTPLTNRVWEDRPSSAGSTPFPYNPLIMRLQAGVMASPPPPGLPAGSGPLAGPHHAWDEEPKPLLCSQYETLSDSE

For `CC(C)CCNNC(=O)c1ccc(CN(CC(=O)NCc2ccccc2)C(=O)c2ccc(N(C)C)cc2)cc1`, the IC50 in [1] is over 10000 nM; in assay [2], 199 nM; in assay [4] it was over 10000 nM; in [5], 2910 nM; in assay [6], 2080 nM; in assay [7] it was 830 nM. Besides, the IC50 in assay [8] is 931 nM; in assay [9], 4940 nM; in assay [10], 15800 nM; in assay [11], 3410 nM; in assay [12] it was 8500 nM. Besides, the inhibition in [3] was under 25%.
Regarding `CN(C)c1ccc(C(=O)N(CC(=O)NCc2ccccc2)Cc2ccc(C(=O)NNCCCc3ccccc3)cc2)cc1`, the half-inhibitory concentration (IC50) in [1] was over 10000 nM; in assay [2], 1200 nM; in assay [4], over 10000 nM; in assay [5], 2210 nM; in [6], 2970 nM; in [7] it was 2460 nM. The IC50 was found to be 1960 nM in [8]; 5900 nM in [9]; 35500 nM in [10]; 10300 nM in [11]; 21600 nM in assay [12]. Besides, the inhibition in assay [13] was under 25%.
As for `CN(C)c1ccc(C(=O)N(CC(=O)NCc2ccccc2)Cc2ccc(C(=O)NNCC3CC3)cc2)cc1`, the half-inhibitory concentration (IC50) in [1] is over 10000 nM; in assay [4], over 10000 nM; in [5], 722 nM; in [6] it was 974 nM; in assay [7], 388 nM; in assay [8] it was 392 nM. Moreover, the 50% inhibitory concentration (IC50) was 2610 nM in assay [9]; 9080 nM in [10]; 1990 nM in assay [11]; 2670 nM in assay [12]; 8560 nM in [14]; 11900 nM in assay [15]. In addition, the half-inhibitory concentration (IC50) amounted to 2970 nM in assay [16] and 1280 nM in [17]. The inhibition in assay [3] was under 25%.
For `CN(C)c1ccc(C(=O)N(CC(=O)NCc2ccccc2)Cc2ccc(C(=O)NNCCC(F)(F)F)cc2)cc1`, the IC50 in assay [1] is over 10000 nM; in assay [2], 37 nM; in assay [19] it was over 10000 nM; in assay [4], over 10000 nM; in [5] it was 691 nM; in assay [6] it was 910 nM. Further, the IC50 was determined as 379 nM in assay [7]; 385 nM in [8]; 2250 nM in assay [9]; 8050 nM in assay [10]; 2200 nM in assay [11]; 3140 nM in assay [12]. For the same compound, the inhibition in assay [18] and in assay [3] was under 25% throughout.
As for `CN(C)c1ccc(C(=O)N(CC(=O)NCc2ccccc2)Cc2ccc(C(=O)NNc3ccccc3)cc2)cc1`, the IC50 was over 10000 nM in assay [1]; 3820 nM in [2]; over 10000 nM in assay [19]; over 10000 nM in assay [4]; 27700 nM in assay [5]; 36000 nM in [6]. For the same compound, the concentration for half-maximal inhibition (IC50) in assay [7] came to 21500 nM; in assay [8], 24300 nM; in assay [11], 60800 nM. The inhibition in assay [18] and in [3] was under 25% each time. The result in assay [20], in assay [21] and in [22] was inactive.
Regarding `CN(C)c1ccc(C(=O)N(CC(=O)NCc2ccccc2)Cc2ccc(C(=O)Nc3ccccc3N)cc2)cc1`, the IC50 in assay [1] was over 10000 nM; in [19], over 10000 nM; in [4], over 10000 nM; in [5], 1220 nM; in [6], 1630 nM; in assay [7], 327 nM. For the same compound, the 50% inhibitory concentration (IC50) in assay [8] was determined as 491 nM; in [9] it was 4330 nM; in [10], 8280 nM; in assay [11] it was 2000 nM; in [12] it was 2630 nM; in [14], 49800 nM. The IC50 was determined as 47600 nM in assay [15], 9340 nM in [16] and 6470 nM in [17].
On to `CCCCCNNC(=O)c1ccc(CN(CC(=O)NCc2ccccc2)C(=O)c2ccc(N(C)C)cc2)cc1`, for which the half-inhibitory concentration (IC50) in [1] is over 3330 nM; in assay [2], 72 nM; in assay [4], over 10000 nM; in assay [5] it was 273 nM; in assay [6], 334 nM; in assay [7], 264 nM. The IC50 in assay [8] was 218 nM; in assay [9], 675 nM; in [10] it was 3380 nM; in assay [11] it was 843 nM; in assay [12], 1500 nM. Besides, the inhibition in assay [13] was under 25%.
